Test system: RAW 264.7 cells
Assay: Quantitative cell-permeability of FITC-labeled aMTD- or rPeptide-fused CRA recombinant proteins (flow cytometry)
Format: cell-based
Details: for Relative Ratio to aMTD AVE: cell-permeability of rPeptide-fused CRA recombinant protein relative to average of 240 aMTDs
Description: The aMTDs and rPeptides were fluorescently labeled and compared based on the critical factors for cell-permeability by using flow cytometry and confocal laser scanning microscopy (FIGS. 5 to 8). The cellular uptake of the peptide-fused non-functional cargo recombinant proteins could quantitatively be evaluated in flow cytometry, while confocal laser scanning microscopy allows intracellular uptake to be assessed visually. The analysis included recombinant proteins fused to a negative control [rP38] that has opposite characteristics (hydrophilic and aromatic sequence: […] NO: 952)) to the aMTDs (hydrophobic and aliphatic sequences). Relative cell-permeability (relative fold) of aMTDs to the negative control was also analyzed (Table 23 and FIG. 9). […] RAW 264.7 cells were treated with 10 μM FITC-labeled recombinant proteins for 1 hour at 37° C., washed three times with cold PBS, treated with 0.25% tripsin/EDTA (Sigma-Aldrich, St. Louis, Mo.) for 20 minutes at 37° C. to remove cell-surface bound proteins. Cell-permeability of these recombinant proteins were analyzed by flow cytometry (Guava, Millipore, Darmstadt, Germany) using the FlowJo cytometric analysis software (FIGS. 5 to 6).

[1] = cell-permeability of aMTD-fused CRA recombinant protein relative to negative control (A: rP38)
[2] = cell-permeability of aMTD-fused CRA recombinant protein relative to reference CPP (B: MTM12)
[3] = cell-permeability of aMTD-fused CRA recombinant protein relative to reference CPP (C: MTD85)
[4] = cell-permeability relative to negative control rP38 (A type), aMTD-fused CRA recombinant protein, 10 μM FITC-labeled, 1 hour, 37° C., RAW 264.7 cells
[5] = cell-permeability relative to reference CPP MTD85 (C type), aMTD-fused CRA recombinant protein, 10 μM FITC-labeled, 1 hour, 37° C., RAW 264.7 cells
[6] = cell-permeability relative to reference CPP MTM12 (B type), aMTD-fused CRA recombinant protein, 10 μM FITC-labeled, 1 hour, 37° C., RAW 264.7 cells
[7] = 10 μM FITC-labeled, 1 hour, 37° C., RAW 264.7 cells
[8] = relative cell-permeability of rPeptide vs reference A (not defined)
[9] = relative cell-permeability of rPeptide vs reference CPP B: MTM12
[10] = relative cell-permeability of rPeptide vs reference CPP C: MTD85

Substance | Relative Ratio (Fold) A [4] | Relative Ratio (Fold) C [5] | Relative Ratio (Fold) B [6] | Relative Ratio to aMTD AVE [7] | further results
1 (AAALAPVVLALP; Amino acid Sequence of aMTD1) [compound 1] |  |  |  |  | Relative Ratio (Fold) A [1]: 17.7 Fold; Relative Ratio (Fold) B [2]: 11.8 Fold; Relative Ratio (Fold) C [3]: 6.0 Fold
2 (AAAVPLLAVVVP; Amino acid Sequence of aMTD2) [compound 2] |  |  |  |  | Relative Ratio (Fold) A [1]: 40.9 Fold; Relative Ratio (Fold) B [2]: 27.2 Fold; Relative Ratio (Fold) C [3]: 13.8 Fold; Relative Ratio (Fold) A (relative cell-permeability of aMTD vs reference A (not defined)): 40.9 Fold; Relative Ratio (Fold) B (relative cell-permeability of aMTD vs reference CPP B: MTM12): 27.2 Fold; Relative Ratio (Fold) C (relative cell-permeability of aMTD vs reference CPP C: MTD85): 13.8 Fold
3 (AALLVPAAVLAP; Amino acid Sequence of aMTD3) [compound 3] |  |  |  |  | Relative Ratio (Fold) A [1]: 27.0 Fold; Relative Ratio (Fold) B [2]: 18.0 Fold; Relative Ratio (Fold) C [3]: 9.1 Fold
4 (ALALLPVAALAP; Amino acid Sequence of aMTD4) [compound 4] | 2.0 Fold | 0.7 Fold | 1.3 Fold |  | 
5 (AAALLPVALVAP; Amino acid Sequence of aMTD5) [compound 5] | 3.1 Fold | 1.0 Fold | 2.1 Fold |  | 
11 (VVALAPALAALP; Amino acid Sequence of aMTD11) [compound 11] |  |  |  |  | Relative Ratio (Fold) A [1]: 9.5 Fold; Relative Ratio (Fold) B [2]: 6.3 Fold; Relative Ratio (Fold) C [3]: 3.2 Fold
12 (LLAAVPAVLLAP; Amino acid Sequence of aMTD12) [compound 12] | 2.2 Fold | 0.7 Fold | 1.5 Fold |  | 
13 (AAALVPVVALLP; Amino acid Sequence of aMTD13) [compound 13] | 7.0 Fold | 2.4 Fold | 4.7 Fold |  | 
16 (NNSCTTYTNGSQ; Amino acid Sequence of rPeptide ID 16) [compound 16] |  |  |  | 0.08 | Relative Ratio (Fold) A [8]: 1.6 Fold; Relative Ratio (Fold) B [9]: 1.1 Fold; Relative Ratio (Fold) C [10]: 0.5 Fold
17 (GGCSAPQTTCSN; Amino acid Sequence of rPeptide ID 17) [compound 17] |  |  |  | 0.08 | 
18 (NYCCTPTTNGQS; Amino acid Sequence of rPeptide ID 18) [compound 18] |  |  |  | 0.10 | 
21 (AVALLPALLAVP; Amino acid Sequence of aMTD21) [compound 21] |  |  |  |  | Relative Ratio (Fold) A [1]: 18.9 Fold; Relative Ratio (Fold) B [2]: 12.6 Fold; Relative Ratio (Fold) C [3]: 6.4 Fold
24 (IALAAPALIVAP; Amino acid Sequence of aMTD24) [compound 24] | 2.3 Fold | 0.8 Fold | 1.6 Fold |  | 
25 (IVAVAPALVALP; Amino acid Sequence of aMTD25) [compound 25] | 2.4 Fold | 0.8 Fold | 1.6 Fold |  | 
26 (AAIALAAPLAIV; Amino acid Sequence of rPeptide ID 26) [compound 26] |  |  |  | 0.65 | 
29 (VLPPLPVLPVLP; Amino acid Sequence of rPeptide ID 29) [compound 29] |  |  |  | 0.07 | Relative Ratio (Fold) A [8]: 1.4 Fold; Relative Ratio (Fold) B [9]: 0.9 Fold; Relative Ratio (Fold) C [10]: 0.5 Fold
38 (YYNQSTCGGQCY; Amino acid Sequence of rPeptide ID 38) [compound 38] |  |  |  | 0.05 | 
39 (CYNTSPCTGCCY; Amino acid Sequence of rPeptide ID 39) [compound 39] |  |  |  | 0.29 | 

Substance | Relative Ratio (Fold) A [4] | Relative Ratio (Fold) C [5] | Relative Ratio (Fold) B [6] | Relative Ratio to aMTD AVE [7] | further results
43 (LLAAPLVVAAVP; Amino acid Sequence of aMTD43) [compound 43] | 2.1 Fold | 0.7 Fold | 1.4 Fold |  | 
61 (VAALPVLLAALP; Amino acid Sequence of aMTD61) [compound 61] |  |  |  |  | Relative Ratio (Fold) A [1]: 31.2 Fold; Relative Ratio (Fold) B [2]: 20.8 Fold; Relative Ratio (Fold) C [3]: 10.5 Fold
62 (VALLAPVALAVP; Amino acid Sequence of aMTD62) [compound 62] | 1.4 Fold | 0.5 Fold | 0.9 Fold |  | 
64 (AIVALPVAVLAP; Amino acid Sequence of aMTD64) [compound 64] |  |  |  |  | Relative Ratio (Fold) A [1]: 15.8 Fold; Relative Ratio (Fold) B [2]: 10.6 Fold; Relative Ratio (Fold) C [3]: 5.3 Fold
65 (IAIVAPVVALAP; Amino acid Sequence of aMTD65) [compound 65] | 3.0 Fold | 1.0 Fold | 2.0 Fold |  | 
66 (AGVLGGPIMGVP; Amino acid Sequence of rPeptide ID 66) [compound 66] |  |  |  | 0.13 | 
67 (LDAEVPLADDVP; Amino acid Sequence of rPeptide ID 67) [compound 67] |  |  |  | 0.08 | Relative Ratio (Fold) A [8]: 1.5 Fold; Relative Ratio (Fold) B [9]: 0.9 Fold; Relative Ratio (Fold) C [10]: 0.5 Fold
68 (VAPVLPAAPLVP; Amino acid Sequence of rPeptide ID 68) [compound 68] |  |  |  | 0.32 | 
82 (AVVLAPVAAVLP; Amino acid Sequence of aMTD82) [compound 82] | 2.1 Fold | 0.7 Fold | 1.4 Fold |  | 
83 (LAVAAPLALALP; Amino acid Sequence of aMTD83) [compound 83] | 1.4 Fold | 0.5 Fold | 0.9 Fold |  | 
84 (AAVAAPLLLALP; Amino acid Sequence of aMTD84) [compound 84] | 1.5 Fold | 0.5 Fold | 1.0 Fold |  | 
85 (LLVLPAAALAAP; Amino acid Sequence of aMTD85) [compound 85] | 1.9 Fold | 0.7 Fold | 1.3 Fold |  | 
97 (ALLAAPPALLAL; Amino acid Sequence of rPeptide ID 97) [compound 97] |  |  |  | 0.41 | 
105 (LLALAPAALLAP; Amino acid Sequence of aMTD105) [compound 105] | 4.0 Fold | 1.3 Fold | 2.6 Fold |  | 
113 (PVAVALLIAVPP; Amino acid Sequence of rPeptide ID 113) [compound 113] |  |  |  | 0.61 | 
121 (AIVALPALALAP; Amino acid Sequence of aMTD121) [compound 121] | 2.5 Fold | 0.8 Fold | 1.7 Fold |  | 
124 (IAVALPALIAAP; Amino acid Sequence of aMTD124) [compound 124] |  |  |  |  | Relative Ratio (Fold) A [1]: 43.6 Fold; Relative Ratio (Fold) B [2]: 29.0 Fold; Relative Ratio (Fold) C [3]: 14.7 Fold
139 (TGSTNSPTCTST; Amino acid Sequence of rPeptide ID 139) [compound 139] |  |  |  | 0.17 | 

Reference: US10385103B2, “Cell-permeable (ICP)-SOCS3 recombinant protein and uses thereof” (CELLIVERY THERAPEUTICS, INC., priority 2014, dated 2019)
